Converted amounts (≈) assume the structure as drawn. The source made the active and inactive calls. No cut-off for these calls is given here.
Experiments:
A-375 [1] = test: Dark toxicity against human A-375 cells assessed as reduction in cell viability incubated for 16 hrs by CCK-8 assay; type: functional, cell-based; conditions: A-375, 16 h
B16-F10 [2] = test: Induction of apoptosis in mouse B16-F10 cells assessed as necrotic cells at 10 nM incubated for 16 hrs followed by irradiated with 54 J/cm^2 light dose by Annexin V-FITC/PI based flow cytometric analysis (reference value: 3.75 %); type: functional
A-375 [3] = test: Induction of ROS generation in human A-375 cells assessed as cells with high intracellular ROS levels at 20 nM incubated for 16 hrs followed by irradiated with 54 J/cm2 light dose by H2DCFDA fluorescent probe based flow cytometry method (reference value: 2.09 %); type: functional
A-375 [4] = test: Induction of apoptosis in human A-375 cells assessed as total apoptotic cells at 50 nM incubated for 16 hrs followed by irradiated with 54 J/cm^2 light dose by Annexin V-FITC/PI based flow cytometric analysis (reference value: 4.79 %); type: functional
HeLa = test: Dark toxicity against human HeLa cells assessed as reduction in cell viability incubated for 16 hrs by CCK-8 assay; type: functional, cell-based
[5] = Drug elimination in C57BL/6 mouse harboring B16-F10 cells at 2 mg/kg, iv measured after 48 hrs by fluorescence imaging assay; type: ADME, organism-based; conditions: in vivo
B16-F10 [6] = test: Photodynamic therapy in mouse B16-F10 cells implanted in C57BL/6 mouse model assessed as increase infiltration of CD4+ T cells measured after 3 days by immunofluorescence staining based analysis; type: functional, cell-based; conditions: time 3.0 day
B16-F10 [7] = test: Induction of apoptosis in mouse B16-F10 cells assessed as late apoptotic cells at 50 nM incubated for 16 hrs followed by irradiated with 54 J/cm^2 light dose by Annexin V-FITC/PI based flow cytometric analysis (reference value: 2.32 %); type: functional
[8] = Biodistribution in heart of C57BL/6 mouse harboring mouse B16-F10 cells at 2 mg/kg, iv measured after 12 hrs by flourescence imaging assay; type: ADME, organism-based; conditions: in vivo
B16-F10 [9] = test: Photodynamic therapy in mouse B16-F10 cells implanted in C57BL/6 mouse model assessed as increase in infiltration of CD4+ T cells by APC/FITC/PE staining based flow cytometric analysis (reference value: 4.85 %); type: functional
B16-F10 [10] = test: Induction of apoptosis in mouse B16-F10 cells assessed as viable cells at 50 nM incubated for 16 hrs followed by irradiated with 54 J/cm^2 of light dose by Annexin V-FITC/PI based flow cytometric analysis (reference value: 87.45 %); type: functional; conditions: B16-F10, light or radiation study, read-out: Activity
[11] = Toxicity in C57BL/6 mouse harboring mouse B16-F10 cells assessed as change in body weight at 2 mg/kg, iv irradiated with 60 J/cm^2 laser light measured upto 14 days; type: organism-based; conditions: in vivo, 336 h, time <=14 day
[12] = Drug localisation in lysosome of mouse B16-F10 cells at 5 uM incubated for 16 hrs by Lyso Tracker Green based confocal laser scanning microscopy analysis; type: ADME, subcellular; conditions: b16-f10, 16 h
B16-F10 [13] = test: Induction of ROS generation in mouse B16-F10 cells assessed as cells with high intracellular ROS levels at 20 nM incubated for 16 hrs followed by irradiated with 54 J/cm^2 of light dose by H2DCFDA fluorescent probe based flow cytometry method (reference value: 1.96 %); type: functional
A-375 [14] = test: Induction of ROS generation in human A-375 cells assessed as cells with high intracellular ROS levels at 100 nM incubated for 16 hrs followed by irradiated with 54 J/cm2 light dose by H2DCFDA fluorescent probe based flow cytometry method (reference value: 2.09 %); type: functional
B16-F10 [15] = test: Induction of apoptosis in mouse B16-F10 cells assessed as early apoptotic cells at 50 nM incubated for 16 hrs followed by irradiated with 54 J/cm^2 light dose by Annexin V-FITC/PI based flow cytometric analysis (reference value: 6.48 %); type: functional
[16] = Drug localisation in endoplasmic reticulum of mouse B16-F10 cells at 5 uM incubated for 16 hrs by ER Tracker Green based confocal laser scanning microscopy analysis; type: ADME, subcellular; conditions: b16-f10, 16 h
[17] = Aqueous solubility in PBS; type: physicochemical; conditions: buffer
B16-F10 [18] = test: Antitumor activity against mouse B16-F10 cells implanted in C57BL/6 mouse assessed as inhibition of tumor growth at 2 mg/kg, iv irradiated with 60 J/cm^2 laser light by IVIS imaging analysis measured upto 48 hrs; type: functional, organism-based; conditions: time hrs <=48
B16-F10 [19] = test: Dark toxicity against mouse B16-F10 cells assessed as reduction in cell viability incubated for 16 hrs by CCK-8 assay; type: cell-based; conditions: B16-F10, 16 h
B16-F10 [20] = test: Antitumor immunity against mouse B16-F10 cells assessed as surface translocation of CRT at 250 nM incubated for 16 hrs followed by irradiated with 54 J/cm^2 light dose and further incubated for 6 hrs by Alexa Fluor 488/Hoechst 33342 staining based confocal laser scanning microscopy; type: functional, cell-based
B16-F10 [21] = test: Induction of apoptosis in mouse B16-F10 cells assessed as viable cells at 250 nM incubated for 16 hrs followed by irradiated with 54 J/cm^2 of light dose by Annexin V-FITC/PI based flow cytometric analysis (reference value: 87.45 %); type: functional; conditions: B16-F10, light or radiation study, read-out: Activity
[22] = Drug localisation in mitochondria of mouse B16-F10 cells at 5 uM incubated for 16 hrs by Mito Tracker Green FM based confocal laser scanning microscopy analysis; type: ADME; conditions: b16-f10, 16 h
B16-F10 [23] = test: Antitumor immunity against mouse B16-F10 cells assessed as release of HMGB1 at 250 nM incubated for 16 hrs followed by irradiated with 54 J/cm^2 light dose and further incubated for 6 hrs by Alexa Fluor 488/Hoechst 33342 staining based confocal laser scanning microscopy; type: functional, cell-based
B16-F10 [24] = test: Induction of ROS generation in mouse B16-F10 cells assessed as cells with high intracellular ROS levels at 100 nM incubated for 16 hrs followed by irradiated with 54 J/cm^2 of light dose by H2DCFDA fluorescent probe based flow cytometry method (reference value: 1.96 %); type: functional
B16-F10 [25] = test: Antitumor immunity against mouse B16-F10 cells assessed as release of HMGB1 at 10 nM incubated for 16 hrs followed by irradiated with 54 J/cm^2 light dose and further incubated for 6 hrs by Alexa Fluor 488/Hoechst 33342 staining based confocal laser scanning microscopy; type: functional, cell-based
A-375 [26] = test: Induction of ROS generation in human A-375 cells assessed as cells with high intracellular ROS levels at 10 nM incubated for 16 hrs followed by irradiated with 54 J/cm2 light dose by H2DCFDA fluorescent probe based flow cytometry method (reference value: 2.09 %); type: functional
B16-F10 [27] = test: Induction of apoptosis in mouse B16-F10 cells assessed as late apoptotic cells at 250 nM incubated for 16 hrs followed by irradiated with 54 J/cm^2 light dose by Annexin V-FITC/PI based flow cytometric analysis (reference value: 2.32 %); type: functional
[28] = Biodistribution in lungs of C57BL/6 mouse harboring mouse B16-F10 cells at 2 mg/kg, iv measured after 12 hrs by flourescence imaging assay; type: ADME, organism-based, Lung; conditions: in vivo
B16-F10 [29] = test: Induction of apoptosis in mouse B16-F10 cells assessed as late apoptotic cells at 10 nM incubated for 16 hrs followed by irradiated with 54 J/cm^2 light dose by Annexin V-FITC/PI based flow cytometric analysis (reference value: 2.32 %); type: functional

Drug excretion [5]: Active | Drug uptake [8]: Active | Drug uptake [12]: Active | Drug uptake [16]: Active | solubility [17]: 165 µM (≈ 144 µg/mL) | Drug uptake [22]: Active | Drug uptake [28]: Active
SMILES: COc1ccc(C2=[N+]3C(=Nc4c(-c5ccccc5)c5c(n4[B-]3(F)F)-c3ccc(OCC(=O)N[C@@H](CC(=O)O)C(=O)O)cc3CC5)C(c3ccccc3)=C2I)cc1
IC50 (A-375 [1]): > 250 µM | Activity (B16-F10 [2]): 0.88% | Activity (A-375 [3]): 4.57% | Activity (A-375 [4]): 66.46% | IC50 (HeLa): > 250 µM | Activity (B16-F10 [6]): Active | Activity (B16-F10 [7]): 13.7% | Activity (B16-F10 [9]): 8.11% | viability at 0.05 µM (B16-F10 [10]): 41.9% | Activity [11]: Non-Toxic | Activity (B16-F10 [13]): 6.77% | Activity (A-375 [14]): 53.15% | Activity (B16-F10 [15]): 40.92% | Activity (B16-F10 [18]): Active | IC50 (B16-F10 [19]): > 250 µM | Activity (B16-F10 [20]): inactive | viability at 0.25 µM (B16-F10 [21]): 3.76% | Activity (B16-F10 [23]): inactive | Activity (B16-F10 [24]): 70.29% | Activity (B16-F10 [25]): inactive | Activity (A-375 [26]): 2.48% | Activity (B16-F10 [27]): 20.54% | Activity (B16-F10 [29]): 7.3%
